The record followed here is US12137691B2, “Method for treating plant seed” (RIJK ZWAAN ZAADTEELT EN ZAADHANDEL B.V., priority 2018, dated 2024).

Each structure is given as a SMILES string. A value given as a limit tells only on which side of the number the result lay.

Assay [1] concerns Rhizoctonia isolate AU 14/243. The assay is described as follows: In vitro growth inhibition on PDA agar plates with imbedded coated spinach seeds, Rhizoctonia. It is filed as cell-based. The procedure:
FIG. 4A is a schematic picture of an with Rhizoctonia-infected agar plate (1) comprising untreated seeds (2) and seeds coated with 500 μg/seed Fe(II)SO4 (3). Plates were inoculated with Rhizoctonia in the center of the plates (4). The growth of Rhizoctonia was measured after 1 day, 2 days, and 4 days post-inoculation (dpi).
(§1) PDA agar plates were prepared in which spinach seeds of the variety Platypus coated with 250 μg Fe(II)SO4 per seed and 1.1 Meq. vitamin C, 500 μg Fe(II)SO4 per seed and 1.1 Meq. vitamin C, or 500 μg Fe(II)SO4 per seed, were imbedded and inoculated with Rhizoctonia isolate AU 14/243 or Fusarium oxysporum isolate MAFF103063.

The subject of assay [2] is P. irregulare. The assay is described as follows: Cornsalad seed sown in soil inoculated with P. irregulare, healthy seedlings. The assay is classed as in vivo, Pythium irregulare. The note with it: 500 μg Fe(II)SO4 per seed, no vitamin C, 7, 11, 17 and 24 days after sowing. The method, then:
FIG. 7B is a graph showing the effect of hot water treatment of cornsalad seeds, and subsequent treatment with 500 μg/seed of Fe(II)SO4. The effect is expressed in the percentage of seedlings that are still alive and healthy 7, 11, 17 and 24 days after sowing in soil inoculated with P. irregulare.
The experiment was also performed on the cornsalad seed when sown in soil inoculated with P. irregulare, prepared as described in Example 2. The percentage of healthy seedlings was determined 7, 11, 17 and 24 days after sowing.

In assay [3] the test system is damping-off. The assay is described as follows: Beetroot seed sown in a field known to suffer from damping-off, healthy seedlings. The note with it: beetroot variety Zeppo, 500 μg Fe(II)SO4 per seed, no vitamin C, 14 and 21 days after sowing. The assay is classed as in vivo. The method, then:
FIG. 6 is a graph showing the effect of treatment of seeds of the beetroot variety Zeppo with 500 μg/seed of Fe(II)SO4. The effect is expressed in the number of seedlings that are still alive and healthy 14 and 21 days after sowing.
Seed of the beetroot variety Zeppo was coated with 500 μg/Fe(II)SO4 per seed as described in Example 1, except that no vitamin C was added. The seed was sown in a field known to suffer from damping-off. The number of healthy seedlings was determined 14 days and 21 days after sowing.

In assay [4] the test system is damping-off. The assay is described as follows: Cornsalad seed sown in soil from a field known to suffer from damping-off, healthy seedlings. It is filed as in vivo. The conditions noted are these: 500 μg Fe(II)SO4 per seed, no vitamin C, 7, 11, 17 and 24 days after sowing. The method, then:
FIG. 7A is a graph showing the effect of hot water treatment of cornsalad seeds, and subsequent treatment with 500 μg/seed of Fe(II)SO4. The effect is expressed in the percentage of seedlings that are still alive and healthy 7, 11, 17 and 24 days after sowing in soil known to suffer from damping-off.
Cornsalad seed was coated with 500 μg/Fe(II)SO4 per seed as described in Example 1, except that no vitamin C was added. The seed was sown in soil from a field known to suffer from damping-off. The percentage of healthy seedlings was determined 7, 11, 17 and 24 days after sowing.

Assay [5] relates to Pythium irregulare isolate 779-2010. The assay is described as follows: Germination of hot water treated spinach seed and survival of seedlings in soil inoculated with Pythium irregulare. The assay is classed as in vivo. The note with it: for effect on the health of the growing plants: coating with only vitamin C (175 or 350 μg per seed). The method, then: A solution of an iron salt, such as for instance Fe(II)SO4, and vitamin C in water is prepared by stirring of the chemicals until a clear, colorless solution is obtained.
A rotary coater is charged with seeds and the iron salt with vitamin C solution is added to the seeds via a spinning disk.
The seeds are dried after coating at 25° C./35 RH until the moisture in the seed is equal to the moisture of the seed before treatment with the iron salt solution.
The effect of the iron salt solution prepared in Example 1 on both germination and survival against Pythium is investigated on hot water treated spinach seeds of the variety Mandril. A suitable protocol for the hot water treatment is described in Extension Factsheet Ohio State University; Sally A. Miller and Melanie L Lewis Ivey; “Hot Water Treatment of Vegetable Seeds to Eradicate Bacterial Plant Pathogens in Organic Production Systems”.
The hot water treated spinach seeds were coated with an Fe(II)SO4 coating supplemented with vitamin C. Two different concentrations of Fe(II)SO4 and vitamin C in the coating solution were used: 1 μg Fe(II)SO4 per seed and 1.1 molar equivalents (Meq.) vitamin C, and 250 μg Fe(II)SO4 per seed and 1.1 Meq. vitamin C. As a control, hot water treated seeds without coating and untreated seeds were used.
Seeds were sown in trays. Germination of the seeds was assessed in trays without any inoculum. The effect of the coating on the survival of seedlings was assessed in trays inoculated with Pythium irregulare isolate 779-2010.
(§2) Trays without the inoculum were prepared by mixing+/−10 L of sowing soil with 1 L of tap water in white trays. In total, 117 sowing holes were made in the trays with a press. To prevent any interaction between treatments, only 1 treatment per tray was sown. For each treatment, 3 replicates of 117 seeds were sown. The seeds were topped with two cups (diameter 12 cm) of sowing soil containing 5 grams of inoculum media. Trays were placed in a controlled climate cell at 20° C., LID->14/10 and a RH of 60%. The number of germinated seeds was counted at 7 days, and the amount of surviving seedlings was counted 7 and 14 days after sowing and inoculation. Trays were physically separated from trays containing Pythium inoculum, to prevent cross-contamination.
The inoculum was prepared by growing Pythium irregulare on fresh V8 plates for 3 days at 28° C. After incubation, the spores and mycelium were harvested by adding 20 ml of sterile PBS to the plate and scraping it with a sterile spatula. This inoculum was added to the sowing soil.
as §2, with “with” for “without the”, “treatment 3,” for “treatment, 3”, “(mixed thoroughly in a bucket before topping off).” for “media.”, “inoculation.” for “inoculation. Trays were physically separated from trays containing Pythium inoculum, to prevent cross-contamination.”
The experiment of Example 2 was repeated with the following modifications:
the spinach seed used are of the varieties Platypus and Meerkat […]

Assay [6] relates to Fusarium oxysporum isolate MAFF103063. The assay is described as follows: In vitro growth inhibition on PDA agar plates with imbedded coated spinach seeds, Fusarium. The assay is classed as cell-based. The method, then: FIG. 4B is a schematic picture of an with Fusarium-infected agar plate (1) comprising untreated seeds (2) and seeds coated with 500 μg/seed Fe(II)SO4 (3). The growth of Fusarium was measured after 2 days, 4 days, and 7 days post-inoculation (dpi).
as §1

Assay [7] relates to fungal growth. The assay is described as follows: Reducing fungal growth on plant seedlings and plants (general statement). The assay is classed as in vivo. The conditions noted are these: general statement in the description, no test details.
The mark [8] stands for this setting: 4 days post inoculation, 250 μg Fe(II)SO4 per seed and 1.1 Meq. vitamin C, or 500 μg Fe(II)SO4 per seed alone.
[9] abbreviates: Platypus seed, 250 μg Fe(II)SO4 per seed and 1.1 Meq. vitamin C, or 500 μg Fe(II)SO4 per seed alone.

Consider `O=S(=O)([O-])[O-].[Fe+2]` [Fe(II)SO4, iron(II)sulfate], for which the “growth of the Rhizoctonia isolate over the plate” value in assay [1] (setting [8]) is recorded as “the isolate covered the whole plate”. The “inhibition of Rhizoctonia growth (weaker when compared to 500 μg Fe(II)SO4 and vitamin C)” value in assay [1] (setting [9]) was “Inhibition was also observed”. Moreover, the “zone of inhibition around the coated seeds, Rhizoctonia” value in assay [1] (after 4 days post-inoculation, 500 μg/seed Fe(II)SO4, not around untreated seeds) is recorded as “zone of inhibition (5) is still visible”. The “protection of cornsalad against damping-off (healthy seedlings)” value in assay [2] and in assay [4] was “protects cornsalad against damping-off” throughout. The “protection of beetroot against damping-off (healthy seedlings)” value in assay [3] is recorded as “protects beetroot against damping-off”. Besides, the “dose-effect response (seedlings alive and healthy 14 days after sowing)” value in assay [5] (spinach varieties Finwhale and Mandril, hot water treated, 50, 100, 150, 200 and 250 μg Fe(II)SO4 per seed) is on record as “linear dose-effect response”. Moreover, the “doses effective to increase the germination and survival of hot-water treated seed” value in assay [5] (spinach varieties Finwhale and Mandril, dose per seed, dose to match untreated seeds depends on variety and/or batch) is at least 50 µg. Moreover, in assay [5] (spinach varieties Platypus and Meerkat, hot water treated, 250 or 500 μg Fe(II)SO4 per seed, with or without 1.1 Meq. vitamin C), the “effect on the health of the plants” value is given as “positive effect”. Also, the “growth of the Fusarium isolate over the plate” value in assay [6] (setting [8]) was “the isolate covered the whole plate”. The “inhibition of Fusarium growth (weaker when compared to 500 μg Fe(II)SO4 and vitamin C)” value in assay [6] (setting [9]) is listed as “Inhibition was also observed”. In addition, the “zone of inhibition around the coated seeds, Fusarium” value in assay [6] (after 7 days post-inoculation, 500 μg/seed Fe(II)SO4, not around untreated seeds) is listed as “zone of inhibition (5) is still visible”. The “effects in reducing fungal growth on the plant seedlings and plants” value (“effects in reducing fungal growth” below) in assay [7] is recorded as “good effects”.

Turning to `[Br-].[Br-].[Fe+2]` [Iron(II)bromide], in assay [7], the “effects in reducing fungal growth” value was “good effects”.

Turning to `O=S(=O)([O-])[O-].O=S(=O)([O-])[O-].[Fe+2].[NH4+].[NH4+]` [iron(II)ammonium sulfate], in assay [7], the “effects in reducing fungal growth” value was “good effects”.

In the case of `[Cl][Fe][Cl]` [iron(II)chloride], in assay [7], the “effects in reducing fungal growth” value is “good effects”.

For the compound `O=S(=O)([O-])[O-].O=S(=O)([O-])[O-].[Fe+3].[NH4+]` [iron(III)ammonium sulfate], in assay [7], the “effects in reducing fungal growth” value was “good effects”.

Consider `[Br-].[Br-].[Br-].[Fe+3]` [iron(III)bromide], for which, in assay [7], the “effects in reducing fungal growth” value was “good effects”.

Turning to `[Cl][Fe]([Cl])[Cl]` [iron(III)chloride], in assay [7], the “effects in reducing fungal growth” value is reported as “good effects”.

As to `O=S(=O)([O-])[O-].O=S(=O)([O-])[O-].O=S(=O)([O-])[O-].[Fe+3].[Fe+3]` [iron(III)sulfate], the “effects in reducing fungal growth” value in assay [7] was “good effects”.

Take `O=C1O[C@H]([C@@H](O)CO)C(O)=C1O` [vitamin C, reference compound]: the “effect on the health of the growing plants” value in assay [5] (spinach variety Meerkat, hot water treated) was “not observed”; in assay [5] (spinach variety Platypus, hot water treated) it was “some effect”.
